Experimental data as given in patent US20240174662A1, “SMALL MOLECULE INHIBITORS OF SALT INDUCIBLE KINASES” (Janssen Biotech, Inc., priority 2021, published 2024).

Each compound was assayed against SIK2 (Homo sapiens (Human), UniProt Q9H0K1) (assay: SIK2 Enzymatic Assay Version 2 (High ATP)). Conditions: 3 mM ATP and 200 μM HDAC5tide final, ADP-Glo Max luminescence.
Type: biochemical
Outline: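 Run at room temperature; SIK2 enzyme at 6 nM (2× final) preincubated with compound 30 min before reaction. ADP formation detected by ADP-Glo Max (2 h reagent, 1 h detection) with luminescence read-out.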

Chain of SIK2 (Q9H0K1 whole entry, species assumed): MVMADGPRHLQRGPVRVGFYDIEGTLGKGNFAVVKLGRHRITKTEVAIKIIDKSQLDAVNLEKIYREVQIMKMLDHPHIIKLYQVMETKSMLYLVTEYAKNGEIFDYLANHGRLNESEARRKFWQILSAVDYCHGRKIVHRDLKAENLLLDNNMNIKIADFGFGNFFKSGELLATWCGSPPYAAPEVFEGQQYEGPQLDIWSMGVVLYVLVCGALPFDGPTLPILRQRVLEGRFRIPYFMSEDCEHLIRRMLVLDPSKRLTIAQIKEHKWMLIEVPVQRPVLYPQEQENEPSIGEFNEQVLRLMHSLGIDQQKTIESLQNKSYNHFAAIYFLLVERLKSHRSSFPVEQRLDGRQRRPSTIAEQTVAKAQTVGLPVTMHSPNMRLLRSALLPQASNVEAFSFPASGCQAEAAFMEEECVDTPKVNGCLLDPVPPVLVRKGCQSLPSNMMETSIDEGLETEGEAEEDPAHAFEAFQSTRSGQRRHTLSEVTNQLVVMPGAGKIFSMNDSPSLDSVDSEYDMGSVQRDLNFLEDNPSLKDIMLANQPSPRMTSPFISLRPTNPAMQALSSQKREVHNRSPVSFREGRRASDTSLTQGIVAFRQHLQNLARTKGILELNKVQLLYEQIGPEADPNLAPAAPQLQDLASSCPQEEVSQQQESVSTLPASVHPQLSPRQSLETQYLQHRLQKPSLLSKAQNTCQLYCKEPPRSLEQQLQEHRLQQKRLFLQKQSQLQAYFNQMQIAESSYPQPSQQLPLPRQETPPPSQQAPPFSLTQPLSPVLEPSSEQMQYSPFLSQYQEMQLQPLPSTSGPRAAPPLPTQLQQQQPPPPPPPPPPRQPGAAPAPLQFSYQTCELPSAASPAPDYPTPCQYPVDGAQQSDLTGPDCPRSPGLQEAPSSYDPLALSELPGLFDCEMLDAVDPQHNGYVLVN

Compound	IC50 [nM]
CN1C[C@H](c2ccccc2)C[C@@H]1COc1cnn(C)c1-c1ccn2nc(NC(=O)C3CC3)cc2c1 [Example 257, N-[5-[2-methyl-4-[[(2R,4S)-1-methyl-4-phenyl-pyrrolidin-2-yl]methoxy]pyrazol-3-yl]pyrazolo[1,5-a]pyridin-2-yl]cyclopropanecarboxamide]	23.5
CN1C[C@@H](c2ccccc2)C[C@@H]1COc1cnn(C)c1-c1ccn2nc(NC(=O)C3CC3)cc2c1 [Example 258, N-[5-[2-methyl-4-[[(2R,4R)-1-methyl-4-phenyl-pyrrolidin-2-yl]methoxy]pyrazol-3-yl]pyrazolo[1,5-a]pyridin-2-yl]cyclopropanecarboxamide]	7.3
Cn1ncc(OC[C@H]2CCN2C[C@H]2CCCO2)c1-c1ccn2nc(NC(=O)C3CC3)cc2c1 [Example 259, N-(5-(1-methyl-4-(((R)-1-(((R)-tetrahydrofuran-2-yl)methyl)azetidin-2-yl)methoxy)-1H-pyrazol-5-yl)pyrazolo[1,5-a]pyridin-2-yl)cyclopropanecarboxamide]	46.5
Cc1cc(Nc2cc3cc(-c4c(OC[C@H]5CCN5)cnn4C(F)F)ccn3n2)nc(C)n1 [Example 260, 5-[4-[[(2R)-azetidin-2-yl]methoxy]-2-(difluoromethyl)pyrazol-3-yl]-N-(2,6-dimethylpyrimidin-4-yl)pyrazolo[1,5-a]pyridin-2-amine]	37.6
CCN1CC[C@@H]1COc1cnn(C(F)F)c1-c1ccn2nc(Nc3cnc(C)cn3)cc2c1 [Example 264, 5-[2-(difluoromethyl)-4-[[(2R)-1-ethylazetidin-2-yl]methoxy]pyrazol-3-yl]-N-(5-methylpyrazin-2-yl)pyrazolo[1,5-a]pyridin-2-amine]	7.7
Cc1cc(Nc2cc3cc(-c4c(O[C@H]5CCN(C)C5)cnn4C)ccn3n2)ncn1 [Example 265, 5-[2-methyl-4-[(3S)-1-methylpyrrolidin-3-yl]oxy-pyrazol-3-yl]-N-(6-methylpyrimidin-4-yl)pyrazolo[1,5-a]pyridin-2-amine]	30.5
CN1CC[C@H](Oc2cnn(C)c2-c2ccn3nc(Nc4cccc(C(F)(F)F)n4)cc3c2)C1 [Example 266, 5-[2-methyl-4-[(3S)-1-methylpyrrolidin-3-yl]oxy-pyrazol-3-yl]-N-[6-(trifluoromethyl)-2-pyridyl]pyrazolo[1,5-a]pyridin-2-amine]	39.5
CN1CC[C@H](Oc2cnn(C)c2-c2ccn3nc(Nc4ccn5nccc5n4)cc3c2)C1 [Example 268, N-[5-[2-methyl-4-[(3S)-1-methylpyrrolidin-3-yl]oxy-pyrazol-3-yl]pyrazolo[1,5-a]pyridin-2-yl]pyrazolo[1,5-a]pyrimidin-5-amine]	36.5
CN1CC[C@H](Oc2cnn(C)c2-c2ccn3nc(Nc4cc5c(nn4)CCC5)cc3c2)C1 [Example 269, N-(6,7-dihydro-5H-cyclopenta[c]pyridazin-3-yl)-5-[2-methyl-4-[(3S)-1-methylpyrrolidin-3-yl]oxy-pyrazol-3-yl]pyrazolo[1,5-a]pyridin-2-amine]	33.2
CC(C)c1cc(Nc2cc3cc(-c4c(O[C@H]5CCN(C)C5)cnn4C)ccn3n2)ncn1 [Example 271, N-(6-isopropylpyrimidin-4-yl)-5-[2-methyl-4-[(3S)-1-methylpyrrolidin-3-yl]oxy-pyrazol-3-yl]pyrazolo[1,5-a]pyridin-2-amine]	40.8
Cc1cc(Nc2cc3cc(-c4c(OC[C@H]5CCN5)cnn4C)ccn3n2)nc(C(F)(F)F)n1 [Example 273, 5-[4-[[(2R)-azetidin-2-yl]methoxy]-2-methyl-pyrazol-3-yl]-N-[6-methyl-2-(trifluoromethyl)pyrimidin-4-yl]pyrazolo[1,5-a]pyridin-2-amine]	18.1
Cc1cc(Nc2cc3cc(-c4c(OC[C@H]5CCN5CCF)cnn4C)ccn3n2)nnc1C [Example 276, N-(5,6-dimethylpyridazin-3-yl)-5-[4-[[(2R)-1-(2-fluoroethyl)azetidin-2-yl]methoxy]-2-methyl-pyrazol-3-yl]pyrazolo[1,5-a]pyridin-2-amine]	0.9
Cc1cc(Nc2cc3cc(-c4c(OC[C@H]5CCN5CCF)cnn4C)ccn3n2)ncn1 [Example 277, 5-[4-[[(2R)-1-(2-fluoroethyl)azetidin-2-yl]methoxy]-2-methyl-pyrazol-3-yl]-N-(6-methylpyrimidin-4-yl)pyrazolo[1,5-a]pyridin-2-amine]	1.4
Cc1cncc(Nc2cc3cc(-c4c(OC[C@H]5CCN5CCF)cnn4C)ccn3n2)n1 [Example 278, 5-[4-[[(2R)-1-(2-fluoroethyl)azetidin-2-yl]methoxy]-2-methyl-pyrazol-3-yl]-N-(6-methylpyrazin-2-yl)pyrazolo[1,5-a]pyridin-2-amine]	1
Cc1cnc(Nc2cc3cc(-c4c(OC[C@H]5CCN5CCF)cnn4C)ccn3n2)cn1 [Example 279, 5-[4-[[(2R)-1-(2-fluoroethyl)azetidin-2-yl]methoxy]-2-methyl-pyrazol-3-yl]-N-(5-methylpyrazin-2-yl)pyrazolo[1,5-a]pyridin-2-amine]	1.8
CN1CC[C@H](Oc2cnn(C)c2-c2ccn3nc(Nc4ccnc(C5CC5)n4)cc3c2)C1 [Example 281, N-(2-cyclopropylpyrimidin-4-yl)-5-[2-methyl-4-[(3S)-1-methylpyrrolidin-3-yl]oxy-pyrazol-3-yl]pyrazolo[1,5-a]pyridin-2-amine]	29.1
Cc1cc(Nc2cc3cc(-c4c(OC[C@H]5CCCN5C)cnn4C)ccn3n2)nc(C)n1 [Example 282, N-(2,6-dimethylpyrimidin-4-yl)-5-[2-methyl-4-[[(2R)-1-methylpyrrolidin-2-yl]methoxy]pyrazol-3-yl]pyrazolo[1,5-a]pyridin-2-amine]	11.3
CN1CCC[C@@H]1COc1cnn(C)c1-c1ccn2nc(Nc3ccc(C4CC4)nn3)cc2c1 [Example 284, N-(6-cyclopropylpyridazin-3-yl)-5-[2-methyl-4-[[(2R)-1-methylpyrrolidin-2-yl]methoxy]pyrazol-3-yl]pyrazolo[1,5-a]pyridin-2-amine]	16.5
Cc1cc(Nc2cc3cc(-c4c(OC[C@H]5CCCN5C)cnn4C)ccn3n2)ncn1 [Example 285, 5-[2-methyl-4-[[(2R)-1-methylpyrrolidin-2-yl]methoxy]pyrazol-3-yl]-N-(6-methylpyrimidin-4-yl)pyrazolo[1,5-a]pyridin-2-amine]	18.5
Cc1ccc(Nc2cc3cc(-c4c(OC[C@H]5CCCN5C)cnn4C)ccn3n2)nn1 [Example 287, 5-[2-methyl-4-[[(2R)-1-methylpyrrolidin-2-yl]methoxy]pyrazol-3-yl]-N-(6-methylpyridazin-3-yl)pyrazolo[1,5-a]pyridin-2-amine]	37.2

The remaining compounds from weak to strong by IC50, led by results:

IC50 [nM]	Compound
51.8	Cn1ncc(OC[C@H]2CCN2CC(C)(C)C#N)c1-c1ccn2nc(NC(=O)C3CC3)cc2c1 [Example 255, N-[5-[4-[[(2R)-1-(2-cyano-2-methyl-propyl)azetidin-2-yl]methoxy]-2-methyl-pyrazol-3-yl]pyrazolo[1,5-a]pyridin-2-yl]cyclopropanecarboxamide]
47.7	CC(C)c1nccc(Nc2cc3cc(-c4c(O[C@H]5CCN(C)C5)cnn4C)ccn3n2)n1 [Example 270, N-(2-isopropylpyrimidin-4-yl)-5-[2-methyl-4-[(3S)-1-methylpyrrolidin-3-yl]oxy-pyrazol-3-yl]pyrazolo[1,5-a]pyridin-2-amine]
43.5	Cc1cc(Nc2cc3cc(-c4c(O[C@H]5CCN(C)C5)cnn4C)ccn3n2)nnc1C [Example 272, N-(5,6-dimethylpyridazin-3-yl)-5-[2-methyl-4-[(3S)-1-methylpyrrolidin-3-yl]oxy-pyrazol-3-yl]pyrazolo[1,5-a]pyridin-2-amine]
42	C[C@@H]1CC[C@H](COc2cnn(C)c2-c2ccn3nc(NC(=O)C4CC4)cc3c2)N1C [Example 256, N-[5-[4-[[(2R,5R)-1,5-dimethylpyrrolidin-2-yl]methoxy]-2-methyl-pyrazol-3-yl]pyrazolo[1,5-a]pyridin-2-yl]cyclopropanecarboxamide]
35.8	CN1CC[C@H](Oc2cnn(C)c2-c2ccn3nc(Nc4ccc5c(n4)CCOC5)cc3c2)C1 [Example 280, N-[5-[2-methyl-4-[(3S)-1-methylpyrrolidin-3-yl]oxy-pyrazol-3-yl]pyrazolo[1,5-a]pyridin-2-yl]-7,8-dihydro-5H-pyrano[4,3-b]pyridin-2-amine]
32.2	Cc1cc(Nc2cc3cc(-c4c(OC[C@H]5CCN5)cnn4C)ccn3n2)nnc1C [Example 275, 5-[4-[[(2R)-azetidin-2-yl]methoxy]-2-methyl-pyrazol-3-yl]-N-(5,6-dimethylpyridazin-3-yl)pyrazolo[1,5-a]pyridin-2-amine]
29.8	Cc1cc(Nc2cc3cc(-c4c(O[C@H]5CCN(C)C5)cnn4C)ccn3n2)nc(C)n1 [Example 267, N-(2,6-dimethylpyrimidin-4-yl)-5-[2-methyl-4-[(3S)-1-methylpyrrolidin-3-yl]oxy-pyrazol-3-yl]pyrazolo[1,5-a]pyridin-2-amine]
23.5	Cc1nccc(Nc2cc3cc(-c4c(OC[C@H]5CCCN5C)cnn4C)ccn3n2)n1 [Example 286, 5-[2-methyl-4-[[(2R)-1-methylpyrrolidin-2-yl]methoxy]pyrazol-3-yl]-N-(2-methylpyrimidin-4-yl)pyrazolo[1,5-a]pyridin-2-amine]
3.4	Cc1cc(Nc2cc3cc(-c4c(OC[C@H]5CCCN5C)cnn4C)ccn3n2)nc(C(F)(F)F)n1 [Example 283, 5-[2-methyl-4-[[(2R)-1-methylpyrrolidin-2-yl]methoxy]pyrazol-3-yl]-N-[6-methyl-2-(trifluoromethyl)pyrimidin-4-yl]pyrazolo[1,5-a]pyridin-2-amine]
0.9	Cc1cc(Nc2cc3cc(-c4c(OC[C@H]5CCN5CCF)cnn4C)ccn3n2)nc(C)n1 [Example 274, N-(2,6-dimethylpyrimidin-4-yl)-5-[4-[[(2R)-1-(2-fluoroethyl)azetidin-2-yl]methoxy]-2-methyl-pyrazol-3-yl]pyrazolo[1,5-a]pyridin-2-amine]
